Experimental data reported in a melting point compilation (Tetko et al.; mined from patent text by program, amines drawn as free bases though some values may be those of a salt).

**Q.** For `O=C(Oc1ccccc1)Sc1nc2ccccc2n1C1CCN(C(=O)Oc2ccccc2)CC1`, which melting point is on record?
**A.** 200 to 203 °C

**Q.** For `CC(C)(COc1ccc(Cl)cc1)C(=O)C(CC1CCCCC1)n1cncn1` (stereo unspecified), which melting point is on record?
**A.** 58 to 60 °C

**Q.** Which melting point does the source give for `O=C1OC(=O)c2c1ccc1sc3ccccc3c21` here?
**A.** 248 to 250 °C

**Q.** For `COc1ccc(-c2nc3cc(Cl)ccc3o2)cc1OC`, which melting point is on record?
**A.** 142 to 145 °C

**Q.** With `CC(C)c1ccc(-c2coc3cc(O)c(O)cc3c2=O)cc1` as the compound, how does the melting point read?
**A.** 181 to 182 °C

**Q.** For `CC(c1ccc(F)c(F)c1)n1ncc(-c2ccc(S(N)(=O)=O)cc2)c(-c2ccc(F)cc2)c1=O` (stereo unspecified), which melting point is on record?
**A.** 214 to 215 °C

**Q.** Which melting point does the source give for `COC(=O)NNS(=O)(=O)c1ccccc1` here?
**A.** 149 to 154 °C

**Q.** For `O=C(O)c1ccccc1Sc1ccccc1[N+](=O)[O-]`, which melting point is on record?
**A.** 169 to 171 °C

**Q.** Which melting point does the source give for `O=C(O)[C@H]1Oc2ccc(Cl)cc2[C@@H](c2ccccc2)O1` (relative stereo) here?
**A.** 175 °C

**Q.** For `CCSc1nc(NC(C)=O)ccc1F`, which melting point is on record?
**A.** 110 to 114 °C

**Q.** Which melting point does the source give for `COc1ccc2nc3[nH]cnc(=O)c3cc2c1` here?
**A.** > 300 °C

**Q.** For `O=C(c1ccc([N+](=O)[O-])cc1)N1CCc2cc(S(=O)(=O)N3CC(c4ccccc4)NC3=O)ccc21` (stereo unspecified), which melting point is on record?
**A.** 145 °C

**Q.** Which melting point does the source give for `CN1CCN(c2nc(N)c3cc(Cl)ccc3n2)CC1` here?
**A.** 176 to 178 °C

**Q.** With `O=C(O)c1cc(Cl)c(-n2ccc(C(F)(F)F)cc2=O)c(Cl)c1` as the compound, how does the melting point read?
**A.** 259 to 260 °C

**Q.** For `O=C(O)C=Cc1ccc(OCC2CN(c3ccccc3)C(=O)O2)cc1` (stereo unspecified), which melting point is on record?
**A.** 239 to 240 °C

**Q.** Which melting point does the source give for `CCOC(=O)C=CC(=O)N1CC1C#N` (stereo unspecified) here?
**A.** 54 to 56 °C

**Q.** With `O=C(O)CCc1conc1-c1ccc(Cl)c(Cl)c1` as the compound, how does the melting point read?
**A.** 181 to 182 °C

**Q.** With `O=C(O)Cc1ccccc1Sc1ccc(F)c(F)c1` as the compound, how does the melting point read?
**A.** 54 to 57 °C

**Q.** For `O=C(Nc1ccccc1)C(=O)N1CCC(Cc2ccccc2)CC1`, which melting point is on record?
**A.** 125 to 128 °C

**Q.** For `COC(=O)C1=C(O)c2ccc(F)cc2S(=O)(=O)N1C`, which melting point is on record?
**A.** 191 °C

**Q.** Which melting point does the source give for `C=CCC(C(=O)OC)C1(C)CCCc2c1[nH]c1ccccc21` (stereo unspecified) here?
**A.** 115 to 116 °C

**Q.** With `N=C(Nc1cc(Cl)cc(NC(=O)/C=C/c2ccccc2Cl)c1)c1ccccc1` as the compound, how does the melting point read?
**A.** 105 to 115 °C

**Q.** For `C#CCN1CCC(N2C(=O)Nc3ccccc3C2c2ccccc2)CC1` (stereo unspecified), which melting point is on record?
**A.** 198 to 201 °C

**Q.** Which melting point does the source give for `CC1C(c2ccccc2)NC(c2ccccc2)C(C)C1OC(=O)CCCCCCCCC(=O)OC1C(C)C(c2ccccc2)NC(c2ccccc2)C1C` (stereo unspecified) here?
**A.** 128 to 135 °C

**Q.** Which melting point does the source give for `COc1ccc(CC(N)(C#N)CF)cc1OC` (stereo unspecified) here?
**A.** 76 °C

**Q.** With `Cc1cccc2c1nc1n2CC(C(C)(C)C)Oc2c(Cl)cccc2-1` (stereo unspecified) as the compound, how does the melting point read?
**A.** 191 to 192 °C

**Q.** Which melting point does the source give for `CCc1nc(C)cn1CC1CC2c3cccc4[nH]cc(c34)CC2N(C)C1` (stereo unspecified) here?
**A.** 172 to 174 °C

**Q.** Which melting point does the source give for `CCCCCN(CCCCC)C(=O)[C@H]1Cc2c([nH]c3ccccc23)CN1C(=O)Nc1cccc(C)c1` here?
**A.** 154 to 155 °C

**Q.** For `O=C1c2ccccc2C(=O)c2c(NCCc3ccc(O)cc3)ccc(NCCc3ccc(O)cc3)c21`, which melting point is on record?
**A.** 240 to 242 °C

**Q.** For `NC(=O)Cc1cccc2c(-c3ccccc3)onc12`, which melting point is on record?
**A.** 191 to 192 °C

**Q.** With `CCOC(=O)CC1(S(N)(=O)=O)c2cc(F)ccc2-c2ccc(F)cc21` as the compound, how does the melting point read?
**A.** 215 to 217 °C

**Q.** Which melting point does the source give for `CS(=O)(=O)c1ccc(-c2cnn(-c3ccc(F)c(F)c3)c(=O)c2-c2ccc(Cl)cc2)cc1` here?
**A.** 187 to 188 °C

**Q.** For `CSC(=O)c1c(O)ccc2ccccc12`, which melting point is on record?
**A.** 111 to 112 °C

**Q.** With `COc1ccnc(CSc2nc3cc(OC(F)(F)C(F)Cl)ccc3[nH]2)c1` (stereo unspecified) as the compound, how does the melting point read?
**A.** 120 °C

**Q.** Which melting point does the source give for `CCc1cc(OCc2ccccc2)cc(C(=O)OC)c1C(=O)OC` here?
**A.** 66 to 67 °C

**Q.** For `CCCCCCCCCNC(C)C(=O)O` (stereo unspecified), which melting point is on record?
**A.** 264 °C

**Q.** For `COc1cc(NC(=O)c2ccccn2)ccc1Oc1ncccn1`, which melting point is on record?
**A.** 203 to 205 °C

**Q.** For `ON=Cc1ccc(-c2ccc(Cl)cc2)o1`, which melting point is on record?
**A.** 139 to 141 °C

**Q.** For `O=[N+]([O-])c1ccc(Br)c(SC(F)(F)F)c1`, which melting point is on record?
**A.** 118 °C

**Q.** Which melting point does the source give for `COC(=O)c1ccc(NC(=O)C=C(C)c2cc(C(C)C)c(C(C)C)o2)cc1` here?
**A.** 167 to 169 °C

**Q.** With `CC(CO)(c1ccc(Cl)cc1)N1CCN(c2ccc(CO)c(Cl)c2)CC1` (stereo unspecified) as the compound, how does the melting point read?
**A.** 126 to 130 °C

**Q.** With `CCN(CC)c1nc(CO)cs1` as the compound, how does the melting point read?
**A.** 67 to 69 °C

**Q.** With `O=C(O)COC1=C(Cc2ccc3c(Cl)cccc3c2)C(=O)CCC1` as the compound, how does the melting point read?
**A.** 236 to 238 °C

**Q.** With `COc1cc(C)nc(-c2ccc(C)cc2)n1` as the compound, how does the melting point read?
**A.** 66 to 67 °C

**Q.** Which melting point does the source give for `CN1CCC(OC2c3ccccc3CCn3c2nc(-c2ccccc2)c3-c2ccccc2)CC1` (stereo unspecified) here?
**A.** 90 °C

**Q.** For `CC(NC(=O)OCc1ccccc1)C(=O)N1C(C(=O)O)CC2CCCCC21` (stereo unspecified), which melting point is on record?
**A.** 58.6 °C

**Q.** For `CCN1CCC(C(=O)NO)(S(=O)(=O)c2ccc(Oc3ccc(Cl)cc3)cc2)CC1`, which melting point is on record?
**A.** 158 °C

**Q.** With `Cc1c(C2CCC(c3ccccc3)(N(C)C)CC2)n(CC(O)CN(C)C)c2ccccc12` (stereo unspecified) as the compound, how does the melting point read?
**A.** 54 to 57 °C

**Q.** With `CCOP(=O)(OCC)C(C)c1cn(C(c2ccccc2)(c2ccccc2)c2ccccc2)cn1` (stereo unspecified) as the compound, how does the melting point read?
**A.** 124 to 126 °C

**Q.** For `Cc1nccn1-c1cccc(C2=Nc3ccc(-c4ccc(F)cc4)cc3NC(=O)C2)c1`, which melting point is on record?
**A.** 227 °C

**Q.** For `CCOc1ccc2c(c1)n(C13CC4CC(CC(C4)C1)C3)c(=O)n2S(=O)(=O)c1ccc(N)cc1OC`, which melting point is on record?
**A.** 248 °C
